Here are results for two molecules from publication PMC6268188, “Comparative Studies of the (Anti) Mutagenicity of Baccharis dracunculifolia and Artepillin C by the Bacterial Reverse Mutation Test” (Molecules, 2012).

Data set [1] deals with S. typhimurium TA98. The note with it: positive control, 1.25 μg/ plate, TA 98, + S9.
For data set [2], the system named is S. typhimurium TA100. The note with it: positive control, 1.25 μg/ plate, TA 100, + S9.
In data set [3] the test system is S. typhimurium TA97a. The note with it: positive control, 1.25 μg/ plate, TA 97, + S9.
The test system of data set [4] is S. typhimurium TA97a. The following applies: mutagen alone (Ctrol +), 1.25 μg/ plate, TA 97a, + S9; listed as AA.
The test system of data set [5] is S. typhimurium TA100.

“And” between values parts separate entries of the source, which are not always exact repeats. Identical values can stand only once. Like-named read-outs stand apart in the source and are kept apart here. Marks after values point to notes of the source that are not given here.

For `Nc1ccc2cc3ccccc3cc2c1` [2-anthramine, 2-aminoanthracene, reference compound], the “Number of revertants (M ± SD)/ plate” value is 1567 ± 115 ^e revertants/plate and 1498 ± 33^ e revertants/plate in data set [1]; 1456 ± 78 ^e revertants/plate and 1072 ± 25^ e revertants/plate in data set [2]; 1789 ± 89 ^e revertants/plate and 1861 ± 23 ^e revertants/plate in data set [3]; 2312 ± 81 revertants/plate and 1861 ± 23 revertants/plate in data set [4].

On to aflatoxin B1 [AFB1, reference compound], for which the “Number of revertants (M ± SD)/ plate” value in data set [5] was 2171 ± 33 revertants/plate and 2200 ± 140 revertants/plate.
